The supplement of paper PMC10307832

What was measured:
Test in all cases: relative viability (nuclei count vs DMSO), 5 days (fraction); higher = more cells survive
[1] = compound: COc1cc(Nc2ncc3c(n2)-c2ccc(Cl)cc2C(c2c(F)cccc2OC)=NC3)ccc1C(=O)O [Alisertib] + N=C(N)NC(=N)NCCc1ccccc1 [Phenformin] (partner 250 µM)
Procedure, shortened: (§1)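 Cells from lung cancer lines were seeded into 1536-well plates and, one day later, dosed by pin tool. Treatments were either a single drug or a fixed dose of an anchor drug with five library-drug doses (not always all listed) in √10 steps. After 5 days, nuclei were stained in a one-step fixation (final 0.05% Triton X-100, 1% formaldehyde, 1 ug/ml Hoechst) and counted on 4× images, and relative viability is the treated-to-vehicle nuclei ratio, as the median of duplicate plates.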

[2] = compound: COc1cc(Nc2ncc3c(n2)-c2ccc(Cl)cc2C(c2c(F)cccc2OC)=NC3)ccc1C(=O)O [Alisertib] + NC(=O)Nc1cc(-c2cccc(F)c2)sc1C(=O)N[C@H]1CCCNC1 [AZD7762] (partner 0.2 µM)
Procedure, shortened: as §1

[3] = compound: COc1cc(Nc2ncc3c(n2)-c2ccc(Cl)cc2C(c2c(F)cccc2OC)=NC3)ccc1C(=O)O [Alisertib] + Cc1nc(NC(=O)N2CCC[C@H]2C(N)=O)sc1-c1ccnc(C(C)(C)C(F)(F)F)c1 [Alpelisib] (partner 2 µM)
Procedure, shortened: as §1

[4] = compound: COc1cc(Nc2ncc3c(n2)-c2ccc(Cl)cc2C(c2c(F)cccc2OC)=NC3)ccc1C(=O)O [Alisertib] + CS(=O)(=O)N1CCN(Cc2cc3nc(-c4cccc5[nH]ncc45)nc(N4CCOCC4)c3s2)CC1 [Pictilisib] (partner 1 µM)
Procedure, shortened: as §1

Row | Cell Line | relative viability ([1]; first compound 0.005 µM) | relative viability ([1]; first compound 0.01581 µM) | relative viability ([1]; first compound 0.05 µM) | relative viability ([1]; first compound 0.1581 µM) | relative viability ([1]; first compound 0.5 µM) | relative viability ([2]; first compound 0.005 µM) | relative viability ([2]; first compound 0.01581 µM) | relative viability ([2]; first compound 0.05 µM) | relative viability ([2]; first compound 0.1581 µM) | relative viability ([2]; first compound 0.5 µM) | relative viability ([3]; first compound 0.005 µM) | relative viability ([3]; first compound 0.01581 µM) | relative viability ([3]; first compound 0.05 µM) | relative viability ([3]; first compound 0.1581 µM) | relative viability ([3]; first compound 0.5 µM) | relative viability ([4]; first compound 0.005 µM) | relative viability ([4]; first compound 0.01581 µM) | relative viability ([4]; first compound 0.05 µM) | relative viability ([4]; first compound 0.1581 µM) | relative viability ([4]; first compound 0.5 µM)
1 | NCI-H1395 | 0.427 | 0.413 | 0.44 | 0.358 | 0.329 | 0.363 | 0.403 | 0.37 | 0.376 | 0.361 | 0.968 | 1.23 | 0.994 | 0.558 | 0.362 | 0.566 | 0.517 | 0.597 | 0.492 | 0.377
2 | NCI-H1437 | 0.236 | 0.286 | 0.251 | 0.142 | 0.118 | 1.07 | 1.09 | 0.751 | 0.399 | 0.201 | 0.91 | 0.836 | 0.425 | 0.213 | 0.112 | 0.341 | 0.378 | 0.219 | 0.123 | 0.0875
3 | NCI-H1651 | 0.218 | 0.222 | 0.147 | 0.101 | 0.175 | 0.456 | 0.455 | 0.385 | 0.199 | 0.129 | 0.867 | 0.87 | 0.533 | 0.289 | 0.187 | 0.51 | 0.429 | 0.289 | 0.161 | 0.121
4 | NCI-H1666 | 0.522 | 0.49 | 0.506 | 0.426 | 0.344 | 0.768 | 0.698 | 0.636 | 0.477 | 0.375 | 1.05 | 0.721 | 0.455 | 0.268 | 0.224 | 0.389 | 0.355 | 0.227 | 0.21 | 0.214
